Test results: PMC3689883 (Journal of medicinal chemistry, 2013)

How the values were obtained:
[1] = molecular target: GluN1/GluN2D (Rattus norvegicus, UniProt Q62645); assay: Two-electrode voltage-clamp, Xenopus oocytes expressing GluN1/GluN2D; type: cell-based; conditions: EC50 GluN2A vs GluN2D
[2] = test system: KA receptors; assay: [3H]KA radioligand binding, rat cortical synaptosomes; conditions: at a concentration of 100 μM
[3] = test system: AMPA receptors; assay: [3H]AMPA radioligand binding, rat cortical synaptosomes; conditions: at a concentration of 100 μM
[4] = molecular target: NMDA receptors; conditions: cited from earlier work
[5] = molecular target: KA receptors; conditions: cited from earlier work; for Ki [3H]KA: rat cortical synaptosomes, ref Clausen et al 14
[6] = molecular target: AMPA receptors; conditions: read-out: Ki [3H]AMPA; rat cortical synaptosomes; ref Clausen et al 14; cited from earlier work

Sequence of GluN1/GluN2D (Q62645 28-1323, other chains not shown): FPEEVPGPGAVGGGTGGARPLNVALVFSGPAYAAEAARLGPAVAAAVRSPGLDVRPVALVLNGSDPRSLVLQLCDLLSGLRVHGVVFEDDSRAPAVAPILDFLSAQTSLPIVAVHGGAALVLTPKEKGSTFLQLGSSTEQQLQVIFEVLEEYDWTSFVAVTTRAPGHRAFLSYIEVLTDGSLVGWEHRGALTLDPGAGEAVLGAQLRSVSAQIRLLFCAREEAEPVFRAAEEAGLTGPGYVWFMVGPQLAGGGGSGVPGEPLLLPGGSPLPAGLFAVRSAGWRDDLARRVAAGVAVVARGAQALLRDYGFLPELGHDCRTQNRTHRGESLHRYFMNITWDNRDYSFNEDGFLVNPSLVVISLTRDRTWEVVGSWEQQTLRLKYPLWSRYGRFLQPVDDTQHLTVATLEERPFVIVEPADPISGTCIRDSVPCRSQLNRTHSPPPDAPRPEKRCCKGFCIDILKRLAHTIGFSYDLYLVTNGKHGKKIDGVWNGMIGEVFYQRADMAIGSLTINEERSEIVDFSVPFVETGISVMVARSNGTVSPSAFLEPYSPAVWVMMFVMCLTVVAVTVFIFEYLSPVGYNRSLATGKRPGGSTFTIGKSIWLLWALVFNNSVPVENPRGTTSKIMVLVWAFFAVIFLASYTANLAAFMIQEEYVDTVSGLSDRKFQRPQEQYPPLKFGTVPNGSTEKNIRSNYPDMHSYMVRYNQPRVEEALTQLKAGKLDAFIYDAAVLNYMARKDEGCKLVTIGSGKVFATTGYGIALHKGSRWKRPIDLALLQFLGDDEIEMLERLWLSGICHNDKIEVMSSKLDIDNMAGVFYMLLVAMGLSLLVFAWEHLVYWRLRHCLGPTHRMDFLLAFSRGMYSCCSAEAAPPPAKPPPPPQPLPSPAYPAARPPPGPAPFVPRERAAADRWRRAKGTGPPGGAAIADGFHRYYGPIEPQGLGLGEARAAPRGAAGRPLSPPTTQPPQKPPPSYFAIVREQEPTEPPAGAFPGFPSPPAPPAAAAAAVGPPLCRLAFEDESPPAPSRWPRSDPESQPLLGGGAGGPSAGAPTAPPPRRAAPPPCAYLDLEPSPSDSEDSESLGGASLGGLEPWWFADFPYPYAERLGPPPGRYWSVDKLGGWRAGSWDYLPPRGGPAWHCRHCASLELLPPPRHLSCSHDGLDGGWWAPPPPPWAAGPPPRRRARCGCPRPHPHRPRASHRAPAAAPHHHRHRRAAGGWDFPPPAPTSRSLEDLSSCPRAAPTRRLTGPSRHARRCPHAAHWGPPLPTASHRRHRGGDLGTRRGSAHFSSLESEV

CC[C@]1(C(=O)O)C[C@H]1[C@H](N)C(=O)O.Cl [Compound 4c, (1S,2R)-2-((S)-amino(carboxy)methyl)-1-ethylcyclopropanecarboxylic acid hydrochloride]
fold more potent at GluN2D compared to GluN2A [1]: 15 fold

CCCC[C@]1(C(=O)O)C[C@H]1[C@H](N)C(=O)O.Cl [Compound 4e, (1S,2R)-2-((S)-amino(carboxy)methyl)-1-butylcyclopropanecarboxylic acid hydrochloride]
binding to KA receptors [2]: not binding | binding to AMPA receptors [3]: not binding

CCCC(=CC(N)C(=O)O)CP(=O)(O)O (stereo not shown) [[^3H]CGP 39653]
Kd ([4]; read-out: Kd of radioligand, radioligand used at 2 nM): 0.006 µM

C=C(C)[C@H]1CN[C@H](C(=O)O)[C@H]1CC(=O)O [[^3H]KA, kainic acid]
Kd ([5]; read-out: Kd of radioligand, radioligand used at 5 nM): 0.0056 µM

NC(C(=O)O)c1ccnn1O (racemic) [Compound 3a, (RS)-2-(N-hydroxypyrazol-5-yl)glycine]
Ki [6]: > 100 µM | Ki ([4]; read-out: Ki [3H]CGP39653, rat cortical synaptosomes, ref Clausen et al 14): 10 µM | Ki [3H]KA [5]: >100 µM

CCCc1cnn(O)c1[C@@H](N)C(=O)O [Compound 3b]
Ki [6]: > 100 µM | Ki [3H]KA [5]: >100 µM
